According to US5248668A, “Use of purpurogallin and glycosides thereof in treating ischemia in mammals” (Wintek Consulting Ltd., priority 1992, dated 1993):

Tests used:
human erythrocytes = assay: protection of human erythrocytes from AAPH-induced lysis; format: cell-based; settings: for IC50: Homo sapiens, Erythrocyte, 3 h, 100 mM AAPH, 10% RBC suspension, 37° C., 180 min, read-out: concentration of the agent that elicits 50% inhibition of cells lysis (IC50)
Protocol: In this example, experiments were conducted with human erythrocytes, subjecting them to free radicals generated by thermal activation of AAPH in a reaction mixture in the absence and in the presence of various amounts of purpurogallin or Trolox, to determine the cytoprotective capability of purpurogallin under these conditions.
Freshly obtained human erythrocytes were washed at least three times in saline with centrifugation at 1500 g×10 min. Then, a 20% suspension of RBC was prepared in the phosphate buffered saline (pH 7.4). (Miki et al., Arch. Biochem. Biophys. 258: 373-380, 1987).
The free radicals were generated by thermal activation of the azo-initiator2,2'-azo-bis(2-amidinopropane)HCl(AAPH). The reaction mixture (0.5 mL volumes) contained 10% red blood cell (RBC) suspension, AAPH (100 mM final level) and various levels of purpurogallin in 10 mM phosphate buffered saline. The above mixture was incubated at 37° C. for 180 min, while shaking gently. The, 35 μl aliquot of reaction mixture was taken out, diluted in 1.5 mL of saline, and centrifuged (1500 g for 10 min). The absorption of the supernatant at […] was read against a PBA blank. Similarly, the reaction mixture was treated with 1.5 mL of distilled water with sonication for 2 min to obtain complete hemolysis. Percent hemolysis was calculated according to Miki et al. (op. cit.).

rat hepatocytes [1] = assay: survival of rat hepatocytes after exposure to oxyradical (Table I); format: cell-based; settings: for Mean Survival Time of 10^5 Rat Hepatocytes After Exposure to Oxyradical: control about 6.5 minutes
Source text: In further studies, culturing the rat hepatocytes and testing for oxyradical damage using purpurogallin and Trolox additives according to the procedure of Wu et al. op. cit., and Clin. Chem. 36: 1172-1173 (abstract), 1990, the results given below in Table I were obtained.

[2] = test system: Human ventricular myocytes; assay: survival of ventricular myocytes after exposure to oxyradical (Table II); format: cell-based; settings: for Mean survival time of human ventricular myocytes after exposure to oxyradical: control 2 minutes, mean of 5-7 replicates
Source text: Human ventricular myocytes were isolated and tested with purpurogallin and Trolox for protection against oxyradical damage using the methods and procedures described by Wu et al., op cit.
Each result reported in Table II is the mean of 5-7 closely agreeing replicates.

[3] = test system: Rat kidney mesangial cells; assay: survival of rat kidney mesangial cells exposed to XOD and hypoxanthine (Table III); format: cell-based; settings: for Mean Time Survival of Cells Exposed to XOD and Hypoxanthine: XOD 66.7 IU/L, hypoxanthine 0.5 mM, control 5.7
Source text: Rat kidney mesangial cells were isolated and tested with purpurogallin versus Trolox over the same range of concentrations, for protection against oxyradical damage using methods and procedures described by Wu et al., op cit. […]

rat hepatocytes [4] = assay: time to necrose rat hepatocytes exposed to xanthine oxidase/hypoxanthine oxyradicals (FIG. 2); format: cell-based, rat (male Sprague-Dawley); settings: 3 mM; XOD 66.7 IU/L, 2 mM hypoxanthine; control approximately 6 min
Protocol: In this example, experiments were conducted with rat hepatocytes, subjecting them to the action of free radicals in the presence and absence of purpurogallin, at various levels.
Hepatocytes were prepared from male Sprague-Dawley rats (400 g-450 g) according the method of Princen et al. J. Clin. Invest. 78: 1064-1071 (1986), except that the perfusion of the liver was done first with 250 mL of 0.5 mM EGTA and 10 MM HEPES buffer solution (pH 7.4) containing 142 mM NaCl and 6.7 mM KCL via gravity drip at 20 mL/min., then with 100 mL of magnesium-free Hank's Balanced Salt Solution containing 5 mM CaCl2 and 0.05% collagenase according to Seglen, Exp. Cell. Res. 82: 391-398 (1973). All other details were as described previously (Wu et al., Biochem. Cell Biol. 68, 1189-1194, 1990).
Free radical studies were done by removing the cell medium and adding to the cells 3 mL of 0.05M sodium phosphate-buffered saline (PBS) (pH 7.4) containing 66.7 IU/L of xanthine oxidase (XOD) and 2 mM hypoxanthine, the latter two being used to generate oxyradicals. The base for comparing the effect of different levels of purpurogallin was the time taken to cause necrosis in 95% of 10^5 cells of the same generation in each culture dish. […]
The results are shown graphically in FIG. 2. […] The data are expressed as means±SD (standard deviation). […]

rat livers = assay: partial hepatic ischemia-reperfusion in vivo; set-up: species or system Sprague-Dawley rats; settings: for Mean Necrosis (% by weight): infused via penile vein, 24 h reperfusion, saline control 30.3, n=6
Protocol: In vivo studies were conducted on rat livers, to determine the effectiveness of purpurogallin as a cytoprotectant in partial hepatic ischemia-reperfusion.
There was used the same model as described in Wu et al. Hepatology 13: 575-580, (1991). In essence, the model involves the occlusion of blood vessels supplying to the left lateral, median, and Spigelian lobes of the rate liver by clamping the left portal vein, left hepatic artery and left bile duct. The right portal vein, hepatic artery and bile duct were left intact as an interal shunt. The occlusion was done in Sprague-Dawley rats (0.3-0.4 kg) which had fasted overnight. Approximately […] before the end of ischemia, either 3 mL of saline (control) or saline containing purpurogallin or Trolox (at the levels specified below) was infused into the animals via the penile vein over a 3 minute period. This was followed by reperfusion for 24 hours. Then, the extent of necrosis (based on wet weight of the liver) was quantified by a well established histochemical method (Frederiks et al., Exptl. Mol. Path 41: 119-125, 1984).

heart = heart ischemia-reperfusion in vivo; set-up: species or system New Zealand white rabbits
Protocol: In this example, the cytoprotective effect of purpurogallin in vivo, in heart ischemia-reperfusion in rabbits was examined.
New Zealand white rabbits (3.0-3.5 kg by weight) were anaesthetized with intramuscular injection of Ketamine (35 mg/kg) and Atravet (0.4 mg/kg), and intravenous injection of atropine (0.1 mg/kg).
After shaving the frontal area of the animal, anaesthesia was maintained by performing tracheotomy and ventilating the animal with positive pressure respiration using a Harvard small animal respirator and a gas mixture of 2.5% ethrane (or enflurane) in oxygen. A midline sternotomy was done. The pericardium was opened and the heart was exposed. The main branch of the anterior ventricular coronary artery that supplies blood to a great part of the left ventricle and apex in rabbits (also referred to as the left circumflex coronary artery) was temporarily ligated with a 5-0 silk thread for 1 hour at the site between 1/2 to 2/3 from apex to the atrioventricular groove. Approximately 1 minute before releasing the occlusion, a 30-ml bolus of 1 mM test solution was injected through the right external jugular vein. In control animals, a 30-mL bolus of normal saline was given instead of the test solution. […] After this period, the heart was harvested, stained for enzyme activity with a tetrazolium dye and the areas of necrosis determined by planimetry. […]

water solubility = format: physicochemical; settings: 4 mM prepared in PBS with brief sonication, pH adjusted to 7.40±0.05

Cc1c(C)c2c(c(C)c1O)CCC(C)(C(=O)O)O2 (centres unmarked) [Trolox, 6-hydroxy-2,5,7,8-tetramethylchroman-2-carboxylic acid, reference compound]
IC50 (human erythrocytes): ~740 µM
Mean Survival Time of 10^5 Rat Hepatocytes After Exposure to Oxyradical (rat hepatocytes [1]; 0.5 mM): 12 min
Mean Survival Time of 10^5 Rat Hepatocytes After Exposure to Oxyradical (rat hepatocytes [1]; 1.0 mM): 13 min
Mean Survival Time of 10^5 Rat Hepatocytes After Exposure to Oxyradical (rat hepatocytes [1]; 2.0 mM): 16 min
Mean survival time of human ventricular myocytes after exposure to oxyradical ([2]; 0.5 mM): 3.5 min
Mean survival time of human ventricular myocytes after exposure to oxyradical ([2]; 1.0 mM): 4.5 min
Mean survival time of human ventricular myocytes after exposure to oxyradical ([2]; 1.5 mM): 4.8 min
Mean survival time of human ventricular myocytes after exposure to oxyradical ([2]; 3.0 mM): 5.3 min
Mean Time Survival of Cells Exposed to XOD and Hypoxanthine ([3]; 0.13 mM): 6.4 min
Mean Time Survival of Cells Exposed to XOD and Hypoxanthine ([3]; 0.25 mM): 6.6 min
Mean Time Survival of Cells Exposed to XOD and Hypoxanthine ([3]; 0.50 mM): 7.4 min
Mean Time Survival of Cells Exposed to XOD and Hypoxanthine ([3]; 1.00 mM): 7.8 min

O=c1c(O)cccc2cc(O)c(O)c(O)c12 [Purpurogallin, 2,3,4,6-tetrahydroxy-5H-benzocyclohepten5-one]
IC50 (human erythrocytes): 120 µM
effectiveness versus Trolox in protecting cells from lysis (from IC50) (human erythrocytes; versus Trolox): six
time taken to necrose 100,000 hepatocytes (rat hepatocytes [4]): up to 30 min
Mean Survival Time of 10^5 Rat Hepatocytes After Exposure to Oxyradical (rat hepatocytes [1]; 0.5 mM): 18 min
Mean Survival Time of 10^5 Rat Hepatocytes After Exposure to Oxyradical (rat hepatocytes [1]; 1.0 mM): 20 min
Mean Survival Time of 10^5 Rat Hepatocytes After Exposure to Oxyradical (rat hepatocytes [1]; 2.0 mM): 31 min
protection of rat hepatocytes compared with Trolox (rat hepatocytes [1]; at equivalent concentrations): clearly more protective of rat hepatocytes than Trolox
Mean survival time of human ventricular myocytes after exposure to oxyradical ([2]; 0.5 mM): 14 min
Mean survival time of human ventricular myocytes after exposure to oxyradical ([2]; 1.0 mM): > 60 min
Mean survival time of human ventricular myocytes after exposure to oxyradical ([2]; 1.5 mM): > 60 min
Mean survival time of human ventricular myocytes after exposure to oxyradical ([2]; 3.0 mM): > 60 min
protection of myocytes compared with Trolox ([2]; especially at levels greater than 0.5 mM): at least an order of magnitude more protective of myocytes than Trolox
Mean Time Survival of Cells Exposed to XOD and Hypoxanthine ([3]; 0.13 mM): 11.5 min
Mean Time Survival of Cells Exposed to XOD and Hypoxanthine ([3]; 0.25 mM): 13.4 min
Mean Time Survival of Cells Exposed to XOD and Hypoxanthine ([3]; 0.50 mM): 16.0 min
Mean Time Survival of Cells Exposed to XOD and Hypoxanthine ([3]; 1.00 mM): 19.4 min
protection of kidney cells compared with Trolox ([3]; over all the levels examined): protects the kidney cells substantially better than Trolox
Mean Necrosis (% by weight) (rat livers; 4.4 μmoles/kg body weight, SD 4.6): 17.7 % by weight
% Salvage of Liver (rat livers; 4.4 μmoles/kg body weight, p value vs control <0.05): 42%
Mean Necrosis (% by weight) (rat livers; 8.8 μmoles/kg body weight, SD 4.9): 7.3 % by weight
% Salvage of Liver (rat livers; 8.8 μmoles/kg body weight, p value vs control 0.005): 76%
Mean Necrosis (% by weight) (rat livers; 18 μmoles/kg body weight, SD 1.1): 4.4 % by weight
% Salvage of Liver (rat livers; 18 μmoles/kg body weight, p value vs control 0.001): 86%
Mean % (± SD) organ necrosis in area at risk (heart; 8.6-10 μmoles/kg body weight (30-ml bolus of 1 mM), right external jugular vein, 3-hour reperfusion, saline control 46.6 ± 10, p <0.001): 11.8 ± 6.2%
Mean & organ salvage (heart; 8.6-10 μmoles/kg body weight, p <0.001 vs control): 75%
water solubility (water solubility): partly water-soluble
